# Laboratory results: patent US5075338A (priority 1986, dated 1991)
# Tests used:
# [1] = effect exerted on motility, on rats (spontaneous passings in shuttle-box); assay type: in vivo, rat
# Description: II/4. Determination of effect exerted on motility, on rats
# The test is carried out in a Shuttle-box without introducing current and light. The number of spontaneous passings over from side of the box to the other is registered and summarized by the apparatus for an observation period of 30 minutes. The test is carried out on groups comprising […] CFY rats of both sexes weighing […]. The test compound of the Formula I is added prior to the test subcutaneously, together with tetrabenazine and desmethyl-imiprmine (DMI) reference compounds, respectively.
# [2] = effect exerted on food intake, in rats; assay type: in vivo, rat
# [3] = tested on: rabbit pulmonary artery, tyramine-induced noradrenaline release; conditions: for IC50: read-out: IC50, inhibition of noradrenaline releasing effect of tyramine
# in vivo = conditions: rat
# [4] = tested on: noradrenaline uptake, nucleus free supernatant of rat cortex; experiment: 3H-noradrenaline uptake in the nucleus free supernatant of rat cortex; assay type: biochemical; conditions: 37° C., 5 minutes
# Description: II/7. Determination of ^3 H-noradrenaine uptake in the nucleus free supernatant of rat cortex (in vivo)
# The cortex is homogenized in 0.32M saccharose with a teflon potter, the cell nucleus is sedimented by centrifuging at 0° C. with 1000 g for 20 minutes; the supernatant thus obtained is used for the test. The intake is accomplished in a KrebsHeinseleit solution saturated with carbogen, in a final volume of 1 ml, at a ^3 H-noradrenaline concentration of […]. Pre-incubation and incubation are carried out at 37° C. for 5 minutes each. The reaction is stopped by adding 4 ml of ice-cold Krebs solution and the tissue is separated by GF/B filtration. Non-specific uptake is determined by using 10^-4 M nisoxetine at 37° C. The radioactivity of the GF/B filter-paper is determined by liquid scintillation measurement in a toluene-PPO-POPOPtritone mixture.
# isolated rat striatum [5] = experiment: dopaminergic activity increasing effect on isolated rat striatum preparations, in vitro
# Description: (§1) Determination of the dopamineric activity increasing effect, on isolated rat striatum preparations
# (§2) Method: Kerecsen et al: Chromatography, the State of the Art, (Eds. Kalasz, Ettre) Akademiai Kiaoo Budepest (1985) page 195-203.
# [6] = tested on: tetrabenazine-induced depression; experiment: antagonism of tetrabenazine-induced depression in learning test: jumping test; assay type: in vivo, rat
# Description: (§3) II/3 Determination of antagonism of tetrabenazine-induced depression, in learning test, on rats
# a) Jumping test. Method: J. Knoll, B. Knoll: Arzneimittel Forschung 8, 339 (1958), 9, 633 (1959).
# isolated rat striatum [7] = experiment: dopaminergic activity increasing effect on isolated rat striatum preparations, ex vivo
# Description: as §1, §2
# In ex vivo tests the animals are treated s.c. for 3 weeks and the organ is removed 2 hours after administering the last injection.
# [8] = tested on: tetrabenazine-induced depression; experiment: antagonism of tetrabenazine-induced depression in learning test: shuttle-box test; assay type: in vivo, rat; conditions: N = 12
# Description: as §3
# Method: B. Knoll, J. Knoll: Pol. J. Pharmacol. Pharm. 34, 17-23 (1982).
# According to this test depression caused by tetrabenazine can be antagonized by the compounds of the Formula I. In Table 3 the numerical values of the series of test carried out by using the compound according to Example 7 are disclosed.
# [9] = psychostimulant effect in rats: shuttle-box test; assay type: in vivo, rat
# [10] = 10 mg/kg s.c., 30 minutes observation
# [11] = 1st day, tetrabenazine 0.5 mg/kg s.c. daily
# [12] = 2nd day, tetrabenazine 0.5 mg/kg s.c. daily
# [13] = 3rd day, tetrabenazine 0.5 mg/kg s.c. daily
# [14] = 4th day, tetrabenazine 0.5 mg/kg s.c. daily
# [15] = 5th day, tetrabenazine 0.5 mg/kg s.c. daily
# [16] = 1st day, tetrabenazine 0.5 mg/kg + 10 mg/kg compound, s.c. daily
# [17] = 2nd day, tetrabenazine 0.5 mg/kg + 10 mg/kg compound, s.c. daily
# [18] = 3rd day, tetrabenazine 0.5 mg/kg + 10 mg/kg compound, s.c. daily
# [19] = 4th day, tetrabenazine 0.5 mg/kg + 10 mg/kg compound, s.c. daily
# [20] = 5th day, tetrabenazine 0.5 mg/kg + 10 mg/kg compound, s.c. daily
smiles,measurement,setting,value
CCCCC(Cc1ccccc1)NCCC (centres unmarked) [Example 11],motility,[1]; [10],do increase motility
same,food intake,"[2]; 5 mg/kg, first hour",decreasing effect being approximately identical with that of about 0.5 mg/kg of amphetamine
same,"IC50, inhibition of noradrenaline releasing effect of tyramine",[3],can not be given
same,LD50,in vivo; sc,110 mg/kg
same,IC50,[4],100 nM
CCCCCCC(Cc1ccccc1)NCCC (centres unmarked) [Example 13],IC50,[3],501 nM
same,LD50,in vivo; sc,> 50 mg/kg
same,mortality,in vivo; sc,0%
"CCCNC(CC)Cc1ccccc1 (centres unmarked) [Example 6, N-propyl-1-phenyl-2-butyl-amine]",antagonism of motility inhibiting effect of 1 mg/kg of tetrabenazine,[1]; 2.5 mg/kg s.c.,significantly antagonized
same,motility,[1]; [10],do not increase motility
same,food intake,"[2]; rats fasted for 96 hours, similar dose (15 mg/kg)",does not influence the food intake
same,food intake,"[2]; well-fed satiated rats, 15 mg/kg p.o. or s.c.",does not change food intake
same,IC50,[3],346 nM
same,DOPAC concentration of the bath of the organ,isolated rat striatum [5]; dose 0.3,172 pmol/g/min
same,dopamine (DA) concentration of the bath of the organ,isolated rat striatum [5]; dose 0.3,214 pmol/g/min
same,DOPAC concentration of the bath of the organ,isolated rat striatum [5]; dose 1.0,190 pmol/g/min
same,dopamine (DA) concentration of the bath of the organ,isolated rat striatum [5]; dose 1.0,366 pmol/g/min
same,DOPAC concentration of the bath of the organ,isolated rat striatum [5]; dose 3.0,331 pmol/g/min
same,dopamine (DA) concentration of the bath of the organ,isolated rat striatum [5]; dose 3.0,290 pmol/g/min
same,DOPAC concentration of the bath of the organ,isolated rat striatum [5]; dose 10.0,537 pmol/g/min
same,dopamine (DA) concentration of the bath of the organ,isolated rat striatum [5]; dose 10.0,477 pmol/g/min
same,LD50,in vivo; iv,40 mg/kg
same,LD50,in vivo; po,300 mg/kg
same,LD50,in vivo; sc,140 mg/kg
same,antagonism of the depressive effect of tetrabenazine,[6]; 15 mg/kg,entirely antagonized
same,inhibition of the solid conditioned reflex,[6]; 15 mg/kg (high doses),can not be inhibited
same,IC50,[4],500 nM
same,DOPAC concentration of the bath of the organ,"isolated rat striatum [7]; daily dose 0.25, s.c. 3 weeks",222 pmol/g/min
same,dopamine (DA) concentration of the bath of the organ,"isolated rat striatum [7]; daily dose 0.25, s.c. 3 weeks",257 pmol/g/min
same,DOPAC concentration of the bath of the organ,"isolated rat striatum [7]; daily dose 5.0, s.c. 3 weeks",223 pmol/g/min
same,dopamine (DA) concentration of the bath of the organ,"isolated rat striatum [7]; daily dose 5.0, s.c. 3 weeks",189 pmol/g/min
"COc1cc2c(cc1OC)C1CC(=O)C(CC(C)C)CN1CC2 (centres unmarked) [tetrabenazine, reference compound]",motility,[1]; 1 mg/kg tetrabenazine,motility inhibiting effect
same,F+ = % of animals showing a conditioned reaction,[8]; [11],9.58%
same,IR = number of intersignal reactions,[8]; [11],10.25
same,f+ = % of animals responding to unconditioned stimulus,[8]; [11],31.25%
same,f- = % of animals which do not respond even to unconditioned stimulus,[8]; [11],59.17%
same,F+ = % of animals showing a conditioned reaction,[8]; [12],8.50%
same,IR = number of intersignal reactions,[8]; [12],8.33
same,f+ = % of animals responding to unconditioned stimulus,[8]; [12],30.75%
same,f- = % of animals which do not respond even to unconditioned stimulus,[8]; [12],60.75%
same,F+ = % of animals showing a conditioned reaction,[8]; [13],11.42%
same,IR = number of intersignal reactions,[8]; [13],4.67
same,f+ = % of animals responding to unconditioned stimulus,[8]; [13],15.83%
same,f- = % of animals which do not respond even to unconditioned stimulus,[8]; [13],72.75%
same,F+ = % of animals showing a conditioned reaction,[8]; [14],9.8%
same,IR = number of intersignal reactions,[8]; [14],4.50
same,f+ = % of animals responding to unconditioned stimulus,[8]; [14],17.83%
same,f- = % of animals which do not respond even to unconditioned stimulus,[8]; [14],73.08%
same,F+ = % of animals showing a conditioned reaction,[8]; [15],17.67%
same,IR = number of intersignal reactions,[8]; [15],6.92
same,f+ = % of animals responding to unconditioned stimulus,[8]; [15],12.58%
same,f- = % of animals which do not respond even to unconditioned stimulus,[8]; [15],69.75%
same,inhibition of the solid conditioned reflex,[6]; 5 mg/kg tetrabenazine,completely inhibited
CCNC(CC)Cc1ccccc1 (centres unmarked) [Example 8],IC50,[3],1890 nM
same,LD50,in vivo; iv,46 mg/kg
same,LD50,in vivo; sc,195 mg/kg
CCCCC(Cc1ccccc1)NC(C)Cc1ccccc1 (centres unmarked) [Example 12],IC50,[3],3460 nM
same,LD50,in vivo; iv,16 mg/kg
same,LD50,in vivo; sc,> 25 mg/kg
CCC(Cc1ccccc1)NC1CCCCC1 (centres unmarked) [Example 9],IC50,[3],799 nM
same,LD50,in vivo; sc,160 mg/kg
"COCCNC(C)Cc1ccccc1 (centres unmarked) [Example 7, N-(2-methoxyethyl)-1-phenyl-2-propyl-amine]",IC50,[3],14100 nM
same,F+ = % of animals showing a conditioned reaction,[8]; [16],34.60%
same,IR = number of intersignal reactions,[8]; [16],10.50
same,f+ = % of animals responding to unconditioned stimulus,[8]; [16],49.80%
same,f- = % of animals which do not respond even to unconditioned stimulus,[8]; [16],16.40%
same,F+ = % of animals showing a conditioned reaction,[8]; [17],62.20%
same,IR = number of intersignal reactions,[8]; [17],14.70
same,f+ = % of animals responding to unconditioned stimulus,[8]; [17],21.00%
same,f- = % of animals which do not respond even to unconditioned stimulus,[8]; [17],16.80%
same,F+ = % of animals showing a conditioned reaction,[8]; [18],69.20%
same,IR = number of intersignal reactions,[8]; [18],21.30
same,f+ = % of animals responding to unconditioned stimulus,[8]; [18],9.80%
same,f- = % of animals which do not respond even to unconditioned stimulus,[8]; [18],21.00%
same,F+ = % of animals showing a conditioned reaction,[8]; [19],64.90%
same,IR = number of intersignal reactions,[8]; [19],14.30
same,f+ = % of animals responding to unconditioned stimulus,[8]; [19],17.70%
same,f- = % of animals which do not respond even to unconditioned stimulus,[8]; [19],17.40%
same,F+ = % of animals showing a conditioned reaction,[8]; [20],76.10%
same,IR = number of intersignal reactions,[8]; [20],16.80
same,f+ = % of animals responding to unconditioned stimulus,[8]; [20],8.50%
same,f- = % of animals which do not respond even to unconditioned stimulus,[8]; [20],15.40%
same,LD50,in vivo; sc,> 200 mg/kg
same,mortality,in vivo; sc,0%
"CCCNC(Cc1ccccc1)c1ccccc1.Cl (centres unmarked) [Example 3, N-propyl-1,2-diphenyl-ethylamine-hydrochloride]",motility,[1]; [10],do not increase motility
same,IC50,[3],7470 nM
same,LD50,in vivo; sc,75 mg/kg
same,mortality,in vivo; sc,0%
"CNCCCN1c2ccccc2CCc2ccccc21 [DMI, desmethyl-imiprmine, reference compound]",effect on motility and on tetrabenazine induced depression of motility,[1]; DMI reference,inhibitory by itself rather than antagonistic against tetrabenazine induced depression of motility
same,IC50,[4],1 to 5 nM
"CCCNC(CCC)Cc1ccccc1 (centres unmarked) [Example 4, N-propyl-1-phenyl-2-pentylamine]",antagonism of motility inhibiting effect of 1 mg/kg of tetrabenazine,[1]; 1 mg/kg s.c.,completely antagonized
same,motility,[1]; [10],do increase motility
same,food intake,"[2]; 5 mg/kg, first hour",decreasing effect being approximately identical with that of about 0.5 mg/kg of amphetamine
same,IC50,[3],1220 nM
same,LD50,in vivo; iv,27 mg/kg
same,LD50,in vivo; po,270 mg/kg
same,LD50,in vivo; sc,50 mg/kg
same,IC50,[4],50 nM
same,general motility,[9]; 0.5 mg/kg daily,without signs of increased general motility
same,performance over the control,[9]; 0.5 mg/kg daily,significant increase of performance over the control
same,increase of the intersignal reactions,[9]; 15 mg/kg daily,moderate
same,learning and retention,"[9]; 15 mg/kg daily, complete test-period",increased learning and retentions from the very first day
same,maintenance of acquired performance after termination of treatment,"[9]; 15 mg/kg, one-week learning period, 6 weeks after termination",completely maintain the performance acquired
"CCCNC(Cc1ccccc1)Cc1ccccc1.Cl [Example 5, N-propyl-1,3-diphenyl-2-propylamine-hydrochloride]",motility,[1]; [10],do increase motility
same,LD50,in vivo; sc,> 150 mg/kg
same,mortality,in vivo; sc,0%
CCCC(Cc1ccccc1)NC (centres unmarked) [Example 10],IC50,[3],1800 nM
same,LD50,in vivo; iv,18 mg/kg
same,LD50,in vivo; sc,175 mg/kg
"CCCC(Cc1ccccc1)NC(C)C.Cl (centres unmarked) [Example 1, N-iso-propyl-1-phenyl-2-pentylamine-hydrochloride]",IC50,[3],7470 nM
same,LD50,in vivo; sc,135 mg/kg
"C#CCN(C)[C@H](C)Cc1ccccc1 [Example 1-deprenyl, reference compound]",IC50,[4],7000 nM
"CCCC(Cc1ccccc1)NCCCO (centres unmarked) [Example 2, N-(3-hydroxypropyl)-1-phenyl-2-pentylamine]",IC50,[3],368 nM
same,LD50,in vivo; iv,50 mg/kg
same,LD50,in vivo; sc,> 200 mg/kg
same,mortality,in vivo; sc,0%
